Reference: patent publication US6376175B1, “Methods of discovering chemicals capable of functioning as gene expression modulators” (OSI Pharmaceuticals, Inc., priority 1989, dated 2002)

Experiments:
human G-CSF promoter = type: cell-based; conditions: Table 2 A) transcriptional activators; G21 cells, 6 hours, high-throughput screen
Text: A human bladder carcinoma cell line (U5637, ATCC number HTB 9) was used for transfection of plasmids containing the human Granulocyte-Colony Stimulating Factor (G-CSF) promoter (see below) and was maintained in RPMI medium supplemented with 10% FCS. For HTP screening, transfected 5637 clones were transferred to a serum free defined medium identical to that used for the NIH/3T3 clones.
The sequences of OL-1, OL-2 and OL-5 recognize the G-CSF promoter region, OL-4 recognizes the first intron/exon junction and OL-3 recognizes sequences within the second exon (32). One of the clones isolated from the leukocyte library using these oligonucleotide probes contains a 3.5 kb SalI-BamHI fragment of G-CSF genomic sequence consisting of 3.3 kb of promoter sequence and two hundred base pairs of the coding region. This fragment was inserted into the vector pGEM-7-Zf (Promega, Madison, Wis.) which had previously been digested with SalI/BamHI, resulting in the vector pJM710 (FIG. 7). pJM710 was then digested with PstI, and the resulting 1.6 kb fragment containing G-CSF upstream sequences and the first 15 bases of the G-CSF leader sequence was inserted into the PstI site of pGEM5-Luci (FIG. 8) to generate pG-Lucl (FIG. 9). This construct was then used for transfection of 5637 human bladder carcinoma cells as described below in section E3. pGEM5-Luci (FIG. 8) had previously been constructed by inserting the […]/SalI fragment from pSVLuci (FIG. 2) containing the luciferase coding sequence and the SV40 late polyadenylation signal into pGEM 5-Zf (Promega, Madison Wis.) digested with XhoI/SalI.
pG-LUC1 (FIG. 9) and pRSVNeo were co-transfected into 5637 human bladder carcinoma cells as described above. Selection of G418 resistant clones was as described above except for using a concentration of 0.1 mg/ml G418. Analysis of cell clones was performed as above except that a known inducer of G-CSF expression (1-5 µg/ml lipopolysaccharide (LPS), E. coli serotype 055:b5, Difco, Detroit, Mich. or Sigma, St. Louis, Mo.) was used in place of dexamethasone.
(§1) Cell plating: Dynatech Microlite 96 well plates were custom pretreated for cell attachment by Dynatech Laboratories, Inc. (Chantilly, Va.). Alternatively, the 96 well plates were treated with 50 µl per well of human fibronectin (hFN, 15 µg/ml in PBS, Collaborative Research, Bedford, Mass.) overnight at 37 C. hFN-treated plates were washed with PBS using an Ultrawash 2 Microplate Washer (Dynatech Labs), to remove excess hFN prior to cell plating. M10, 532, and G21 cells maintained in their respective serum media (with 0.2 mg/ml G418) were washed with PBS, harvested by trypsinization, and counted using a hemocytometer and the Trypan Blue exclusion method according to protocols provided by Sigma, St. Louis, Mo. Chemical Company. Cells were then diluted into serum free defined media (with 0.2 mg/ml G418), and 0.2 ml of cell suspension per well was plated onto Dynatech treated plates (532 and G21) or hFN-treated plates (M10) using a Cetus Pro/Pette (Cetus, Emeryville Calif.). Plates were incubated overnight at 37 C in a humidified 5% CO2 atmosphere.
(§2) Addition of Chemicals to Cells: Chemicals from the Oncogene Science file were dissolved in DMSO at concentrations of 3-30 mg/ml. A liquid handling laboratory work station (RSP 5052, Tecan U.S. Chapel Hill, N.C.) was used to dilute the chemicals (three dilutions; 5 fold, 110 fold, and 726 fold). 10 11 of each dilution were added to each of quadruplicate samples of cells contained in the wells of 96-well Dyantech Microlite Plates. […]

[1] = test system: human growth hormone promoter; type: cell-based; conditions: Table 2 A) transcriptional activators; 532 cells, 6 hours, high-throughput screen
Text: A rat pituitary cell line, designated GC, (4, 25) was used for transfection of plasmids containing the human growth hormone promoter (see below) and was maintained in DMEM and Ham's F12 medium (1:1), supplemented with 12.5% FCS. For HTP screening, transfected GC clones were transferred to serum free defined medium consisting of DMEM and Ham's F12 medium (1:1) supplemented with growth factors, hormones and nutrients as described previously (17, 5).
The SalI-XhoI fragment of pSVLuci (FIG. 2) containing the luciferase coding sequences and the SV40 late polyadenylation site was inserted into pUC 8 (Biorad, Richmond, Calif.), which has been linearized by a SmaI/HinCII digestion and ligated to XhoI linkers (New England Biolabs, Beverly, Mass.). The new plasmid thus generated (pUXLuci; FIG. 4) was linearized by XhoI digestion followed by incubation with the Klenow fragment of E. coli DNA polymerase and the four deoxyribonucleotides to fill in the single-stranded ends of the vector. This linear (5.1 KB) form of pUXLuci was then ligated to the filled-in 550 bP HindIII-XbaI fragment of the plasmid phGH:CAT (FIG. 5) (25). Human growth hormone promoter sequences located on the HindIII-XbaI fragment were thus fused to the luciferase coding sequences located on pUXLuci generating the plasmid phGH-Luci (FIG. 6), which was used in transfections of GC cells as described below (Section E2).
phGH-LUCI (FIG. 6) and pRSVNeo, an antibiotic resistance plasmid (14), were co-transfected into GC rat pituitary cells as described above. Selection of G418-resistant cell clones was described above except for using a concentration of 0.2 mg/ml G418. Analysis of the cell clones was performed as above, except that known inducers of hGH expression (10-100 nM rat growth hormone releasing factor (rGRF, Bachem, Torrance, Calif.) and 10 μm forskolin (Sigma, St. Louis, Mo.) were used in place of dexamethasone. One clone, 532, was selected for further use in the high throughput screen.
as §1
Addition of Chemicals to Cells: Chemicals from the Oncogene Science file were dissolved in DMSO at concentrations of 3-30 mg/ml. A liquid handling laboratory work station (RSP 5052, Tecan U.S. Chapel Hill, N.C.) was used to dilute the chemicals (three dilutions; 5 fold, 110 fold, and 726 fold). 10 11 of each dilution were added to each of quadruplicate samples of cells contained in the wells of 96-well Dyantech Microlite Plates. Cell plates were then shaken on a microplate shaker (Dyantech, medium setting, 30 sec.) and incubated for 6 hours at 37 C, 5% CO2.
Bioluminescence Assay: After incubation with OSI-file chemicals, cell plates were washed 3 times with PBS using an Ultrawash 2 Microplate Washer (Dyantech Labs) and 75 µl of Lysis Buffer 2 were added to each well (Lysis Buffer 2 is the same as Lysis buffer 1 exept that the ATP and DTT concentrations were changed to 2.67 mM and 133 mM, respectively). […]

[2] = test system: mouse mammary tumor virus (MMTV) promoter; type: cell-based; conditions: Table 2 A) transcriptional activators; M10 cells, 6 hours, high-throughput screen
Text: NIH/3T3 fibroblast cells (ATCC number CRL 1658) were used for transfection of plasmids containing the mouse mammary tumor virus (MMTV) promoter linked to firefly luciferase coding sequences (see below). Cells were propagated in Dulbecco's modified Eagle's medium (DMEM) obtained from Gibco, Grand Island, N.Y. and supplemented with 10% FCS. For high-throughput (HTP) screening, transfected NIH/3T3 clones were transferred to serum free defined medium consisting of Iscove's modified Eagle's medium (IMEM) and Ham's F12 medium (1:1) supplemented with growth factors, hormones and nutrients as described previously (43).
The firefly luciferase gene was removed from the plant expression plasmid pDO432 (33) (FIG. 1) as a 1.9 kb BamHI fragment and cloned into the BamHI site of pSVL (Pharmacia, Piscataway, N.J.), a mammalian expression vector containing the SV40 promoter. The resulting plasmid (pSVLuci; FIG. 2) was digested with XhoI and SalI to produce a 2.4 kb fragment containing the luciferase coding sequences and the SV40 late polyadenylation site. This fragment was inserted into the XhoI site of pMSG (Pharmacia, Piscataway, N.J.), a eukaryotic expression vector containing the MMTV promoter. The resulting MMTV promoter-luciferase fusion plasmid (pMLuci; FIG. 3) was used to transfect NIH/3T3 cells as described below (section E1). Similar constructs can be made using luciferase vectors from Clontech (Palo Alto, Calif.).
pMluci (FIG. 3) and pSV2Neo, an antibiotic resistance plasmid (34), were co-transfected into NIH/3T3 mouse fibroblast cells using the calcium phosphate precipitation method (15) with a commercially available kit (Pharmacia, Piscataway N.J.). Two days later, cells were transferred to media containing 0.4 mg/ml G418 and were grown for an additional 10-14 days. G418-resistant clones were isolated by standard methods. Once sufficient cell numbers were obtained, clones were analyzed based on several criteria: constitutive luciferase production, induction of luciferase expression by dexamethasone (1 μm, Sigma, St. Louis, Mo.), satisfactory attachment to microtiter plates used in the high-throughput screen (see Section G) and acceptable standard deviation in multiple luciferase expression assays (see below for assay protocol). This analysis was carried out using the luciferase assay conditions described in sections F and G. Of the clones which satisfied the above criteria for the high throuphput screen, one clone, M10, was selected for use.
as §1, §2

G-CSF promoter = experiment: G-CSF promoter-luciferase induction by known inducers, clone G 1002 (5637 cells); type: cell-based, human; conditions: 10.5 hours, serum-containing media; 8.3 ng/ml TNF-alpha, 20 ng/ml PMA, 0.5 ng/ml Interleukin-1 beta, or mixtures as labelled
Text: Cloning of G-CSF sequences is described in Experimental Details, section B-3. In order to correctly fuse the G-CSF upstream sequences to the luciferase start codon, oligonucleotides were synthesized which contain the G-CSF leader sequence from +15 to the ATG (32), and were cloned into pUC19 to create pGUC84 (FIG. 29). […] The G-CSF-oligonucleotide-containing NcoI/ScaI fragment from pGUC84 was then isolated and ligated to the luciferase-containing NcoI/ScaI fragment from pUV100 to create pGUV100 (FIG. 30). Following this, the PstI fragment of the G-CSF promoter was isolated form pJM710 (FIG. 7) and inserted into the PstI site in pGUV100 generating pGUV1(FIG. 31). The rest of the G-CSF promoter clone was added by ligating the G-CSF-luciferase containing SfiI/ScaI fragment from pGUV1 to the appropriate SfiI/ScaI fragment from pJM710, creating the plasmid pGUV2 (FIG. 32). The XbaI fragment from pGUV2 containing the G-CSF-luciferase fusion was then cloned into pUV103 previously digested with XbaI/SpeI, generating pGUV140 (FIG. 33). Finally, a TK-Neo cassette (Section C) was included by ligating the ScaI/XbaI fragment from pGUV140 which contains the G-CSF-luciferase fusion into pTKNEO103 previously digested with ScaI/XbaI, yielding the final vector pGUV150 (FIG. 34).
All the following constructs were transfected into 5637 bladder carcinoma cells either by electroporation using a BRL (Gaithersburg, Md.) Cellporator electroporation device or by lipofection using BRL lipofectin and following the manufacturer's protocol. For electroporation, cells were trypsinized, treated with Soybean trypsin inhibitor (1 mg/ml), washed three times in Dulbecco's modified Eagle's medium (DMEM) without pH indicator, and 1 ml of cell suspension in DMEM was electroporated at room temperature and at a cell density of 5 million cells per ml at a voltage of 250 V and a capacitance of 1180 microFarad with the electroporation device set at low resistance. In previous experiments these parameters had been determined to result in optimal electroporation efficiency. About 15 min after electroporation cells were recovered from the disposable electroporation containers (BRL, Gaithersburg, Md.) and plated in RPMI containing 10% fetal calf serum. 2 days after electroporation 0.4 mg/ml G 418 were added and clonal cell colonies were picked 14-20 days after transfection. Clones were first analysed for luciferase expression using Lysis Buffer 1 without bovine serum albumin (see Section F) and those testing positive expanded further and frozen in liquid nitrogen. Further analysis of 6 clones (G 1002, G 2005, G 2071, G 2085, G 3014, G3031) included Southern blotting, reaction to known inducers, satisfactory attachment to microtiter plates and acceptable standard deviation in multiple luciferase expression assays. Clones G 2005 and G 2085 were derived from 5637 cells lipofected with 100 ug/ml of linearized pGVU150 (FIG. 34), G 3031 descends from cells electroporated with 100 ug/ml of linearized pGVU150, whereas 200 ug/ml of the same plasmid were used to generate G 3014. Cotransfection of circular pGVU140 (FIG. 33) with circular pTKNeo3 (FIG. 19) was used to generate clones G 1002 and G 2071. While G 1002 resulted from co-electroporation of 50 and 5 ug/ml of the two plasmids, G 2071 descends from cells lipofected with 100 and 10 ug.
Cell clones with correctly integrated promoter/reporter constructs were analysed for correct reaction to known transcriptional inducers. […] Both TNF-alpha- and PMA-induction levels of clone G 1002 were influenced by the presence or absence of epidermal growth factor (EGF). […] The 9.3fold induction by PMA in the absence of EGF was reduced to 5.6fold by including EGF in the serum-free incubation mixture. Similar differences were observed, when EGF was substituted by 10% fetal calf serum.

Compound | GCSF fold induction relative to solvent control (human G-CSF promoter) | hGH fold induction relative to solvent control [1] | MMTV fold induction relative to solvent control [2] | G-CSF promoter induction, clone G 1002 (G-CSF promoter)
CC(=O)[O-].Nc1ccc2nc3c(cc(N)c4ccccc43)[o+]c2c1 [Chemical 1776] | 3.50 fold | 0.15 fold | 1.36 fold | 
Interleukin-1 beta: Interleukin-1 beta, known transcriptional inducer |  |  |  | 2.6 fold
